The source of these data is PubChem BioAssay (NCI).

Common to all, as to experiment: growth of human tumour cells (NCI), 48 h
In assay [1] the test system is HOP-62 NSCLC.
Assay [2] relates to CCRF-CEM leukemia.
Assay [3] deals with CAKI-1 renal.
Assay [4] concerns MOLT-4 leukemia.
Assay [5] deals with NCI-H23 lung.
The subject of assay [6] is A498 renal.
For assay [7], the system named is OVCAR-4 ovarian.
The subject of assay [8] is IGROV1 ovarian.
In assay [9] the test system is MCF7 breast.
Assay [10] deals with T-47D breast.
For assay [11], the system named is UO-31 renal.
In assay [12] the test system is SK-MEL-28 melanoma.
Assay [13] relates to SK-OV-3 ovarian.
The subject of assay [14] is SF-295 CNS.
Assay [15] deals with LOX IMVI melanoma.
In assay [16] the test system is ACHN renal.
For assay [17], the system named is UACC-257 melanoma.
The subject of assay [18] is U251 CNS.
Assay [19] relates to SW-620 colon.
For assay [20], the system named is HCT-15 colon.

Molecules are shown by their SMILES.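 Cultured in 96-well plates, cells were exposed to test compound for 48 hours across five concentrations. At the TGI there is no net growth.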

With `Cc1c(C)c(S(=O)(=O)N(CCCN)OCCCN)c(C)c2c1OC(C)(C)CC2`, the TGI in assay [1] was found to be 27.2 µM; in assay [2], 27.6 µM; in [3] it was 30.1 µM; in assay [4] it was 14.9 µM; in assay [5] it was 27.9 µM; in assay [6], 26.2 µM. Besides, the TGI is 23.6 µM in assay [7]; 20.3 µM in [8]; 29.1 µM in [9]; 33.5 µM in assay [10]; 31.5 µM in assay [11]; 28.5 µM in [12]. The TGI in assay [13] was 29.8 µM; in assay [14], 30.4 µM; in assay [15], 26.1 µM; in assay [16] it was 29.6 µM; in assay [17], 27.3 µM; in assay [18] it was 24.1 µM. The TGI in assay [19] was determined as 29 µM; in assay [20], 29.3 µM.
Consider `Cc1ccc(F)c2[nH]c(-c3ccccc3)cc(=O)c12`, for which the TGI in assay [1] is more than 100 µM; in [2], more than 100 µM; in assay [3] it was more than 100 µM; in assay [4], more than 100 µM; in assay [5] it was more than 65.8 µM; in assay [6] it was more than 100 µM. Also, the TGI in assay [7] is more than 100 µM; in assay [8], more than 100 µM; in [9] it was more than 20.4 µM; in assay [10] it was more than 100 µM; in assay [11] it was more than 50.1 µM; in [12] it was more than 40.1 µM. Moreover, the TGI in [13] was more than 100 µM; in assay [14] it was 43.5 µM; in [15] it was more than 100 µM; in [16], more than 100 µM; in assay [17], more than 100 µM; in assay [18], more than 100 µM. In addition, the TGI in assay [19] and in [20] was more than 100 µM in each case.
Regarding `C1=C2C3=[N+](CCCC3)CC2Cc2sccc21` (stereo not given), the TGI in assay [1], in [2], in [3], in assay [4], in assay [5] and in assay [6] was more than 100 µM each time. For the same compound, the TGI in [7], in assay [8], in [9], in assay [10], in assay [11] and in assay [12] was more than 100 µM throughout. The TGI in assay [13], in [14], in assay [15], in assay [16], in [17] and in assay [18] was more than 100 µM in each case. In addition, the TGI in assay [19] and in assay [20] was more than 100 µM in each case.
Consider `CCN(CC)CCOCCOCC1(c2ccc(Cl)c(Cl)c2)CCCCC1`, for which the TGI in assay [1] stood at 22 µM; in assay [2], 14.7 µM; in assay [3], 22.9 µM; in [4] it was 13.2 µM; in assay [5], 24.5 µM; in [6] it was 27.6 µM. The TGI in assay [7] stood at 26.2 µM; in [8] it was 23.8 µM; in [9] it was 20.3 µM; in assay [10], 17.7 µM; in assay [11], 12.9 µM; in [12] it was 12.3 µM. For the same compound, the TGI in assay [13] was found to be 24.5 µM; in assay [14], 15.1 µM; in assay [15], 21.4 µM; in assay [16] it was 28.5 µM; in assay [17], 9.57 µM; in assay [18], 21.5 µM. Moreover, the TGI in assay [19] stood at 21.9 µM; in [20] it was 15.3 µM.
Turning to `COc1ccc(CC2Cc3ccccc3CC(=O)N2)cc1OC` (stereo not given), the TGI in assay [1] is more than 100 µM; in [2], more than 100 µM; in assay [3], more than 100 µM; in assay [4], 65 µM; in [5], more than 100 µM; in assay [6], more than 100 µM. For the same compound, the TGI in [7] is more than 100 µM; in assay [8] it was more than 100 µM; in assay [9], more than 100 µM; in [10] it was 58.5 µM; in assay [11] it was more than 100 µM; in assay [12], more than 100 µM. Moreover, the TGI in [13], in assay [14], in assay [15], in [16], in [17] and in [18] was more than 100 µM each time. The TGI in assay [19] and in assay [20] was more than 100 µM throughout.
With `CCOC(=O)C(=CNc1ccc(S(N)(=O)=O)cc1)C(=O)OCC`, the TGI in [1], in [2], in [3], in assay [4], in assay [5] and in assay [6] was more than 100 µM each time. In addition, the TGI in assay [7], in [8], in [9], in [10], in assay [11] and in assay [12] was more than 100 µM each time. Further, the TGI in [13], in assay [14], in [15], in [16], in assay [17] and in assay [18] was more than 100 µM in each case. For the same compound, the TGI in assay [19] and in assay [20] was more than 100 µM throughout.
As for `Cc1ccc2c(ccc3ncc(CNc4ccc(NS(C)(=O)=O)cc4)c32)[nH]1`, the TGI in assay [1] was 67.2 µM; in [2], more than 100 µM; in assay [3] it was 58 µM; in assay [4], 44.7 µM; in [5], 58.7 µM; in assay [6], 33.8 µM. For the same compound, the TGI in assay [7] was 58.9 µM; in assay [8], more than 100 µM; in [9] it was 44.5 µM; in assay [10] it was 47.7 µM; in assay [11], 74.7 µM; in assay [12], 53.7 µM. The TGI in assay [13] was 84.2 µM; in assay [14] it was 59.2 µM; in assay [15], 46.2 µM; in assay [16], more than 100 µM; in [17], 34.7 µM; in assay [18] it was 72.2 µM. Besides, the TGI in [19] and in assay [20] was more than 100 µM in each case.
